From US20180051017A1, “AGENT FOR TREATMENT OF SCHIZOPHRENIA” (Sumitomo Dainippon Pharma Co., Ltd., priority 2002, published 2018)
Structures can show the parent of a compound that is named as a salt.

System: patients with schizophrenia in the acute exacerbation phase
Experiment: First stage phase II clinical trial: safety (adverse events, serious adverse events, side effects, ECG, laboratory tests)
Assay type: in vivo, human
Procedure: According to the procedures as shown in Table 1 as described below, the placebo-controlled double blind experiment was done on 149 patients with schizophrenia in the acute exacerbation phase at 15 facilities in USA. The efficacy and safeness were studied when SM-13496 at a dose of 40 mg or 120 mg, or a placebo was orally administered once a day for 6 weeks after placebo washout.

[1] = 40 mg orally once a day for 6 weeks, 50 subjects

## O=C1[C@@H]2[C@@H]3CC[C@@H](C3)[C@@H]2C(=O)N1C[C@@H]1CCCC[C@H]1CN1CCN(c2nsc3ccccc23)CC1 [SM-13496, (1R,2S,3R,4S)-N-[(1R,2R)-2-[4-(1,2-benzoisothiazol-3-yl)-1-piperazinyl-methyl]-1-cyclohexylmethyl]-2,3-bicyclo[2.2.1]heptanedicarboximide hydrochloride]
40 mg and 120 mg groups
  Relationship of the serious adverse events to the tested medicament: denied
40 mg or 120 mg, 6 weeks
  Body weight gain, bulimia, impotence, erectile dysfunction or convulsion: not observed
  Change in 12-lead electrocardiogram: no clinically significant change
[1]
  Number of subjects showing adverse events (%): 40 (80) number of subjects (%)
  Number of subjects showing serious adverse events (%): 3 (6) number of subjects (%)
  Number of subjects who drop out from the trial due to adverse events (%): 6 (12) number of subjects (%)
40 mg, 120 mg and placebo groups
  Ratio of the patients having an abnormal change in laboratory values among the groups: no significant difference
40 mg, 6 weeks, 50 subjects
  Occurrence of adverse event: Akathisia: 4 (8) number of subjects (%)
  Occurrence of adverse event: Digestive disturbance: 4 (8) number of subjects (%)
  Occurrence of adverse event: Drowsiness: 4 (8) number of subjects (%)
  Occurrence of adverse event: Exacerbation of schizophrenia: 2 (4) number of subjects (%)
  Occurrence of adverse event: Free-floating vertigo (excluding rotatory vertigo): 6 (12) number of subjects (%)
  Occurrence of adverse event: Headache: 8 (16) number of subjects (%)
  Occurrence of adverse event: Nausea: 5 (10) number of subjects (%)
  Occurrence of adverse event: Suppression: 9 (18) number of subjects (%)
  Occurrence of serious adverse event: Exacerbation of paranoia: 1 (2) number of subjects (%)
  Occurrence of serious adverse event: Exacerbation of schizophrenia: 1 (2) number of subjects (%)
  Occurrence of serious adverse event: Paranoid schizophrenia: 0 (0) number of subjects (%)
  Occurrence of serious adverse event: Psychosis aggravated: 1 (2) number of subjects (%)
  Occurrence of side effects (%): 33 (66) number of subjects (%)
  Serious adverse events: Total (%): 3 (6) number of subjects (%)
  Side effect: Abdominal pain (Gastroenteric disturbance): 0 (0) number of subjects (%)
  Side effect: Abnormal electrocardiogram (Laboratory assay): 0 (0) number of subjects (%)
  Side effect: Abnormal liver function tests (Laboratory assay): 0 (0) number of subjects (%)
  Side effect: Agitation (Mental disturbance): 0 (0) number of subjects (%)
  Side effect: Agitation aggravated (Mental disturbance): 0 (0) number of subjects (%)
  Side effect: Akathisia (Nervous system disorder): 4 (8) number of subjects (%)
  Side effect: Akathisia aggravated (Nervous system disorder): 1 (2) number of subjects (%)
  Side effect: Anarthria (Nervous system disorder): 0 (0) number of subjects (%)
  Side effect: Anorexia (Metabolic disturbances and nutritional disturbance): 1 (2) number of subjects (%)
  Side effect: Anxiety aggravated (Mental disturbance): 1 (2) number of subjects (%)
  Side effect: Articular rigidity (Musculoskeletal system and connective tissue disorder): 1 (2) number of subjects (%)
  Side effect: Blurred vision (Ocular disturbance): 1 (2) number of subjects (%)
  Side effect: Breathing difficulty (Disturbance in respiratory organ, chest and mediastinum): 0 (0) number of subjects (%)
  Side effect: Cervical rigidity (Musculoskeletal system and connective tissue disorder): 1 (2) number of subjects (%)
  Side effect: Cogwheel rigidity (Nervous system disorder): 0 (0) number of subjects (%)
  Side effect: Constipation (Gastroenteric disturbance): 2 (4) number of subjects (%)
  Side effect: Decrease in appetite (Metabolic disturbances and nutritional disturbance): 1 (2) number of subjects (%)
  Side effect: Diarrhea (Gastroenteric disturbance): 3 (6) number of subjects (%)
  Side effect: Drowsiness (Nervous system disorder): 4 (8) number of subjects (%)
  Side effect: Dry eye (Ocular disturbance): 0 (0) number of subjects (%)
  Side effect: Dry mouth (Gastroenteric disturbance): 0 (0) number of subjects (%)
  Side effect: Dyspepsia (Gastroenteric disturbance): 3 (6) number of subjects (%)
  Side effect: Dystonic reaction (Nervous system disorder): 1 (2) number of subjects (%)
  Side effect: Exacerbation of insomnia (Mental disturbance): 0 (0) number of subjects (%)
  Side effect: External otitis (Infection and parasitosis): 1 (2) number of subjects (%)
  Side effect: Extrapyramidal disease (Nervous system disorder): 1 (2) number of subjects (%)
  Side effect: Fatigue (Total disability and local condition): 3 (6) number of subjects (%)
  Side effect: Fatigue aggravated (Total disability and local condition): 1 (2) number of subjects (%)
  Side effect: Flatulence (Gastroenteric disturbance): 1 (2) number of subjects (%)
  Side effect: Flushing (Vascular diseases): 0 (0) number of subjects (%)
  Side effect: Free-floating vertigo (excluding rotatory vertigo) (Nervous system disorder): 5 (10) number of subjects (%)
  Side effect: Frequent urination (Renal Injury and urinary disorder): 0 (0) number of subjects (%)
  Side effect: Glossoplegia (Nervous system disorder): 0 (0) number of subjects (%)
  Side effect: Headache (Nervous system disorder): 6 (12) number of subjects (%)
  Side effect: Heavy feeling (Musculoskeletal system and connective tissue disorder): 1 (2) number of subjects (%)
  Side effect: Hot flashes (Vascular diseases): 0 (0) number of subjects (%)
  Side effect: Hot sensation (Total disability and local condition): 0 (0) number of subjects (%)
  Side effect: Increase in creatine phosphokinase level in the blood (Laboratory assay): 1 (2) number of subjects (%)
  Side effect: Increase in prolactin level in the blood (Laboratory assay): 1 (2) number of subjects (%)
  Side effect: Increase in total protein (Laboratory assay): 1 (2) number of subjects (%)
  Side effect: Insomnia (Mental disturbance): 1 (2) number of subjects (%)
  Side effect: Laryngopharynx pain (Disturbance in respiratory organ, chest and mediastinum): 1 (2) number of subjects (%)
  Side effect: Loose stools (Gastroenteric disturbance): 0 (0) number of subjects (%)
  Side effect: Melalgia (Musculoskeletal system and connective tissue disorder): 0 (0) number of subjects (%)
  Side effect: Muscle stiffness (Musculoskeletal system and connective tissue disorder): 2 (4) number of subjects (%)
  Side effect: Myalgic pain (Musculoskeletal system and connective tissue disorder): 0 (0) number of subjects (%)
  Side effect: Nausea (Gastroenteric disturbance): 4 (8) number of subjects (%)
  Side effect: Nightmare (Mental disturbance): 0 (0) number of subjects (%)
  Side effect: Palpitation (Heart problems): 0 (0) number of subjects (%)
  Side effect: Parotiditis (Infection and parasitosis): 0 (0) number of subjects (%)
  Side effect: Polyuria (Renal Injury and urinary disorder): 0 (0) number of subjects (%)
  Side effect: Pruritus (Disturbance in Skin and Hypodermis): 0 (0) number of subjects (%)
  Side effect: Psychosis aggravated (Mental disturbance): 0 (0) number of subjects (%)
  Side effect: Restlessness (Mental disturbance): 1 (2) number of subjects (%)
  Side effect: Salivary hypersecretion (Gastroenteric disturbance): 0 (0) number of subjects (%)
  Side effect: Sinus tachycardia (Heart problems): 0 (0) number of subjects (%)
  Side effect: Sleepiness (Total disability and local condition): 1 (2) number of subjects (%)
  Side effect: Suppression (Nervous system disorder): 9 (18) number of subjects (%)
  Side effect: Tinea pedis (Infection and parasitosis): 0 (0) number of subjects (%)
  Side effect: Tongue disturbance (Gastroenteric disturbance): 1 (2) number of subjects (%)
  Side effect: Tremor (Nervous system disorder): 3 (6) number of subjects (%)
  Side effect: Trismus (Nervous system disorder): 0 (0) number of subjects (%)
  Side effect: Urinary tract infection (Infection and parasitosis): 1 (2) number of subjects (%)
  Side effect: Vomiting (Gastroenteric disturbance): 2 (4) number of subjects (%)
  Side effect: Weight loss (Laboratory assay): 1 (2) number of subjects (%)
40 mg-treated group
  Akathisia (adverse event): 8%
  Exacerbation of schizophrenia (adverse event): 4%
  Ratio of the subjects showing suppression: 18%
  Serious adverse events: 3 cases
120 mg orally once a day for 6 weeks, 49 subjects
  Number of subjects showing adverse events (%): 38 (78) number of subjects (%)
